# Test results as given in patent US20250288584A1, “COMBINATIONS COMPRISING POSITIVE ALLOSTERIC MODULATORS OR ORTHOSTERIC AGONISTS OF METABOTROPIC GLUTAMATERGIC RECEPTOR SUBTYPE 2 AND THEIR USE” (JANSSEN PHARMACEUTICA NV, priority 2014, published 2025).
# Several values for one entry are separate records, joined by “and”; a condition that tells them apart may be missing. Identical values can stand only once. Like-named read-outs stand apart in the source and are kept apart here.
# Legend:
# Format in all cases: in vivo, mice
# [1] = system: 6 Hz (32 mA) psychomotor seizures; assay: 6 Hz psychomotor seizure test, 32 mA (incl. TPE determination)
# Outline: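 Mice dosed s.c. into a loose skin fold (one compound p.o.) at 0.01 mL/g body weight. Focal seizures induced by corneal stimulation (6 Hz, 0.2 msec rectangular pulse, 3 sec) at 32 mA; absence of stun, forelimb clonus, vibrissae twitching and Straub-tail scored as protection. TPE determined in this assay; ED50 from evenly spaced doses.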
# [2] = Minimal motor impairment (rotarod)
# [3] = Plasma and brain levels (pK/pD analysis); details: for concentration at 0.25 h / concentration at 0.5 h / concentration at 1 h / concentration at 2 h / concentration at 4 h: mouse, plasma, subcutaneous
# Description: In various tests, animals were sacrificed following testing, and trunk blood and/or brain tissue (whole brains) was collected for quantification of drug levels. Immediately after testing, animals were decapitated and trunk blood was collected into a BD Vacutainer® tube containing K2EDTA and chilled on ice until centrifugation. Following centrifugation (13000-18000 rpm, 5-7 min), the plasma was removed and transferred to a labeled microcentrifuge tube and stored at −80° C. For brain tissue collection, brains were removed immediately following decapitation and flash frozen. The frozen sample was placed in a labeled centrifuge tube and stored at −80° C.
# In addition to recording the efficacy and toxicity data for these compounds alone or in combination, both plasma and brain samples were collected from each of the groups for pharmacokinetic/pharmacokinetic analysis.
# [4] = 10 mg/kg s.c., 0.25 h, 32 mA group
# [5] = 20 mg/kg s.c., 0.25 h, 32 mA group
# [6] = 10 mg/kg, 10 mg/kg s.c., 32 mA group, read-out: Co. No. 25-a mean plasma levels
# [7] = 20 mg/kg, 20 mg/kg s.c., 32 mA group, read-out: Co. No. 25-a mean plasma levels
smiles,measurement,setting,value
CCCCn1ccc(N2CCC(c3ccc(F)cc3F)CC2)c(Cl)c1=O [Co. No. 25-a],# protected/# tested,"[1]; 1 mg/kg s.c., 0.25 h",1/8
same,# protected/# tested,"[1]; 5 mg/kg s.c., 0.25 h",4/8
same,# protected/# tested,"[1]; 10 mg/kg s.c., 0.25 h",2/4 and 4/8
same,# protected/# tested,"[1]; 10 mg/kg s.c., 0.5 h",1/4
same,# protected/# tested,"[1]; 10 mg/kg s.c., 1 h",1/4
same,# protected/# tested,"[1]; 10 mg/kg s.c., 2 h",0/4
same,# protected/# tested,"[1]; 10 mg/kg s.c., 4 h",0/4
same,# protected/# tested,"[1]; 15 mg/kg s.c., 0.25 h",3/8
same,# protected/# tested,"[1]; 20 mg/kg s.c., 0.25 h",4/4 and 8/8
same,# protected/# tested,"[1]; 20 mg/kg s.c., 0.5 h",3/4
same,# protected/# tested,"[1]; 20 mg/kg s.c., 1 h",4/4
same,# protected/# tested,"[1]; 20 mg/kg s.c., 2 h",1/4
same,# protected/# tested,"[1]; 20 mg/kg s.c., 4 h",1/4
same,ED50,"[1]; Mus musculus, sc, at TPE, read-out: ED50 (95% CI) 32 mA",7.7 mg/kg
same,ED50 (95% CI) 32 mA,"[1]; s.c., at TPE",ED50 (95% CI): 7.7 mg/kg (2.3 to 18.4)
same,# rotarod motor impairment/# tested,"[2]; 1 mg/kg s.c., 0.25 h, 32 mA group",0/8
same,# rotarod motor impairment/# tested,"[2]; 5 mg/kg s.c., 0.25 h, 32 mA group",0/8
same,# rotarod motor impairment/# tested,"[2]; 5 mg/kg s.c., 0.25 h, 44 mA group",1/8
same,# rotarod motor impairment/# tested,[2]; [4],0/4 and 0/8
same,# rotarod motor impairment/# tested,"[2]; 10 mg/kg s.c., 0.25 h, 44 mA group",0/8
same,# rotarod motor impairment/# tested,"[2]; 10 mg/kg s.c., 0.5 h, 32 mA group",0/4
same,# rotarod motor impairment/# tested,"[2]; 10 mg/kg s.c., 1 h, 32 mA group",1/4
same,# rotarod motor impairment/# tested,"[2]; 10 mg/kg s.c., 2 h, 32 mA group",0/4
same,# rotarod motor impairment/# tested,"[2]; 10 mg/kg s.c., 4 h, 32 mA group",0/4
same,# rotarod motor impairment/# tested,"[2]; 15 mg/kg s.c., 0.25 h, 32 mA group",0/8
same,# rotarod motor impairment/# tested,[2]; [5],0/4 and 0/8
same,# rotarod motor impairment/# tested,"[2]; 20 mg/kg s.c., 0.25 h, 44 mA group",0/8
same,# rotarod motor impairment/# tested,"[2]; 20 mg/kg s.c., 0.5 h, 32 mA group",1/4
same,# rotarod motor impairment/# tested,"[2]; 20 mg/kg s.c., 1 h, 32 mA group",1/4
same,# rotarod motor impairment/# tested,"[2]; 20 mg/kg s.c., 2 h, 32 mA group",0/4
same,# rotarod motor impairment/# tested,"[2]; 20 mg/kg s.c., 4 h, 32 mA group",1/4
same,# rotarod motor impairment/# tested,"[2]; 30 mg/kg s.c., 0.25 h, 44 mA group",0/8
same,# rotarod motor impairment/# tested,"[2]; 40 mg/kg s.c., 0.25 h, 44 mA group",0/8
same,Co. No. 25-a mean plasma levels (ng/mL),[3]; [4],"6,113 ng/mL"
same,Co. No. 25-a mean plasma levels (ng/mL),[3]; [5],"5,570 ng/mL"
same,concentration at 0.25 h,"[3]; 1 mg/kg, 1 mg/kg s.c., 0.25 h, 32 mA group, read-out: Co. No. 25-a mean plasma levels",466 ng/mL
same,concentration at 0.25 h,"[3]; 5 mg/kg, 5 mg/kg s.c., 0.25 h, 32 mA group, read-out: Co. No. 25-a mean plasma levels",2560 ng/mL
same,concentration at 0.25 h,"[3]; 5 mg/kg, 5 mg/kg s.c., 44 mA group, read-out: Co. No. 25-a mean plasma levels",1430 ng/mL
same,concentration at 0.25 h,"[3]; 10 mg/kg, 10 mg/kg s.c., 0.25 h, 32 mA group, read-out: Co. No. 25-a mean plasma levels",11000 ng/mL
same,concentration at 0.25 h,"[3]; 10 mg/kg, 10 mg/kg s.c., 0.25 h, 32 mA group, read-out: Co. No. 25-a mean plasma levels, statistical outlier removed",11000 ng/mL
same,concentration at 0.5 h,[3]; [6],3330 ng/mL
same,concentration at 1 h,[3]; [6],700 ng/mL
same,concentration at 2 h,[3]; [6],256 ng/mL
same,concentration at 4 h,[3]; [6],40 ng/mL
same,concentration at 0.25 h,"[3]; 10 mg/kg, 10 mg/kg s.c., 44 mA group, read-out: Co. No. 25-a mean plasma levels",4340 ng/mL
same,concentration at 0.25 h,"[3]; 10 mg/kg, 10 mg/kg s.c., 44 mA group, read-out: Co. No. 25-a mean plasma levels, statistical outlier removed",4340 ng/mL
same,concentration at 0.25 h,"[3]; 15 mg/kg, 15 mg/kg s.c., 0.25 h, 32 mA group, read-out: Co. No. 25-a mean plasma levels",1200 ng/mL
same,concentration at 0.25 h,"[3]; 20 mg/kg, 20 mg/kg s.c., 0.25 h, 32 mA group, read-out: Co. No. 25-a mean plasma levels",4100 ng/mL
same,concentration at 0.5 h,[3]; [7],2800 ng/mL
same,concentration at 1 h,[3]; [7],1760 ng/mL
same,concentration at 2 h,[3]; [7],618 ng/mL
same,concentration at 4 h,[3]; [7],28 ng/mL
same,concentration at 0.25 h,"[3]; 20 mg/kg, 20 mg/kg s.c., 44 mA group, read-out: Co. No. 25-a mean plasma levels",3370 ng/mL
same,concentration at 0.25 h,"[3]; 30 mg/kg, 30 mg/kg s.c., 44 mA group, read-out: Co. No. 25-a mean plasma levels",7220 ng/mL
same,concentration at 0.25 h,"[3]; 40 mg/kg, 40 mg/kg s.c., 44 mA group, read-out: Co. No. 25-a mean plasma levels",6260 ng/mL
